Patent US11712466B2, “Vaccine composition” (TOHOKU UNIVERSITY, priority 2017, dated 2023)
Ends that are not written are not given here.

Test system: mouse lung cancer cells (LLC)
Test: Metastasis inhibitory effect in vivo, LLC injected through tail vein, lung metastatic lesion
Conditions: 20 or 100 μg, day 21 after LLC injection
Procedure: 20 μg or 100 μg of KLH (control) and 20 μg or 100 μg of the peptide represented by SEQ ID NO: 4 conjugated with KLH (MTG peptide vaccine) were prepared with physiological saline so that the total amount was 100 μL, respectively, whereby KLH-mixed solutions were obtained. To each of the KLH-mixed solutions (100 μL), an equal amount of complete Freund's adjuvant or Alhydrogel (registered trademark) (Invitrogen) was added. The obtained mixture (200 μL) was intradermally (ID) administered to C57BL/6J male mice (n=5) aged 8 weeks, whereby initial immunization was carried out (0 day). Incidentally, in the intradermal administration, 200 μL was administered at a dose of 100 μL each to two sites. After 2 weeks from the administration (14 days), booster immunization was carried out by subcutaneously administering a mixture of each of the KLH-mixed solutions (100 μL) and an equal amount of incomplete Freund's adjuvant or Alhydrogel (registered trademark) to the mice. […] Further, at that time point, the blood was collected from each mouse, and the antibody titer of an antibody specific to the VASH2 protein was measured by ELISA. The mice were sacrificed on day 21 after the injection of LLC (49 days), and the lung metastatic lesion was analyzed (FIG. 7). […]

In the case of “MTG peptide vaccine: MTG peptide MTGSAADTHR (SEQ ID NO: 4) conjugated with KLH as carrier by a glutaraldehyde method (also: conjugated with KLH by glutaraldehyde)”, the “metastasis of cancer cells (lung metastatic lesion), LLC” value (Alhydrogel adjuvant) is reported as “inhibited metastasis of cancer cells” and the “metastasis of cancer cells (lung metastatic lesion), LLC” value (Freund's adjuvant) is reported as “inhibited metastasis of cancer cells”.
